Source: patent EP0417790B1, “S-triazolo[3,4-i]purine derivatives” (Kyowa Hakko Kogyo Co., Ltd., priority 1989, dated 1991)
pIC50: −log10 of the molar value. Like-named read-outs stand apart in the source and are kept apart here.

Experiments:
male dd mice = assay: Inhibition of platelet activating factor (PAF)-induced mortality; assay type: in vivo; conditions: Mus musculus, minimum effective dose, oral, 1 hour before 40 µg/kg PAF i.v., mortality 2 hours after PAF, read-out: PAF-induced mortality MED
Procedure: The experiment was performed by a minor modification of method of Carlson et al. [Agents and Actions, 21, 379 (1987)]. Groups each consisting of 10 male dd mice (weighing 28 to 32 g) were used, and 100 mg/kg of test compound or a saline (control) was orally administrated. One hour after the administration of test compound, 40 µg/kg of PAF (manufactured by Avanti Polar Lipids Co., Ltd.) was intravenously administered. Two hours after PAF injection, the mortality rate of the animals was observed. […]

Wistar male rats = assay: Diuretic activity; assay type: in vivo; conditions: Rattus norvegicus, po, 25 mg/kg orally, urine taken for 6 hours
Procedure: Wistar male rats weighing 150 to 300 g were used after fasting for 18 hours. […] The test was performed using 3 groups per test compound, and each group consists of 3 animals. The urine was metered by a measuring cylinder and electrolytes (Na^+ and K^+) in the urine were analyzed by flame photometer (model […]: Hitachi Ltd.). Parameters in Table 3 are represented by relative value for control.

male dd-mice = assay: Acute toxicity; assay type: in vivo; conditions: Minimum lethal dose, oral, mortality observed for seven days
Procedure: The compounds were orally administrated to male dd-mice weighing 20 ± 1 g. Minimum lethal dose (MLD) was determined by observing the mortality for seven days after the administration.

trachea = assay: Passive Schultz-Dale reaction (broncho-dilatory effect) on isolated tracheal strips; conditions: Cavia porcellus; 50% relaxation of antigen (EWA, 1 µg/ml)-contracted tracheal strips of passively sensitized guinea pigs
Procedure: Guinea pigs were passively sensitized as follows. Hartley male guinea pigs weighing 350 to 500 g were injected intraperitoneally with rabbit anti-egg albumin (EWA) serum prepared by the method of Koda et al. [Folia pharmacol., Japon 66, 237, (1970)]. After 24 hours, the guinea pigs were stunned and exsanguinated, and then trachea was excised. The zig-zag strips of the trachea were prepared by the method of Emmerson and Mackay [J. Pharm. Pharmacol., 31, 798, (1979)]. The strips were suspended in Krebs-Henseleit solution at 37°C under aeration of a mixed gas of 95% oxygen and 5% carbon dioxide, and incubated for one hour. Antigen (EWA) was then introduced in the solution (final concentration; 1 µg/ml), and the contraction was measured by isotonictransducer (TD-112s, made by Nihon Kohden K.K., Japan) and recorded on a recorder (Type 3066, made by Yokogawa-Hokushin Denki, K.K. Japan). After the contraction curves reached plateau the compounds were successively added in order to get cumulative concentration-relaxation curves. Concentration of 50% relaxation rate (IC50) was calculated from the regression line, which was obtained from cumulative concentration-relaxation curves.

Hartley male guinea pigs = assay: Experimental asthma (collapse time after antigen aerosol); assay type: in vivo; conditions: 1 hour before 1.5% EWA aerosol, n=3-10 mean±S.E.M., control 254 ± 18
Procedure: Guinea pigs were passively sensitized as follows. Hartley male guinea pigs weighing 350 to 500 g were intraperitoneally injected with 1 ml of rabbit anti-egg alubmin (EWA) serum prepared by the method of Koda et al. [Folia pharmacol., Japon, 66, 237 (1970)]. The animals were treated with intraperitoneal injection of diphenhydramine (20 mg/kg) and propranolol (5 mg/kg), 30 minutes before administration of test compounds. 17 hours after the sensitization, the test compounds (50 mg/kg or 5 mg/kg) or saline (control) were orally administrated to sensitized animals. After one hour from the administration of the test compounds, the guinea pigs were placed in plastic observation box and were exposed to an aerosal antigen of 1.5% EWA.
The time until the onset of respiratory distress-like symptom [collapse time (second)] was measured as a result of experimental asthma.

mice = assay: Scopolamine-induced amnesia, step through passive avoidance; assay type: in vivo; conditions: scopolamine 0.5 mg/kg i.p., mean ± S.E.M., controls 40.9±8.1 (Compound 41), 37.0±6.2 (Compound 51)
Procedure: Acquisition trial was performed in a manner similar to Experiment (f). Amnestic treatment was performed by intraperitoneal administration of scopolamine (0.5 mg/kg), 30 minutes prior to the acquisition trial. The test trial was performed 24 hours after the acquisition trial and its latency was determined as in Experiment (f).
Preparation of administrated test compound was performed in a manner similar to Experiment (f). Test compound and the saline were orally administered 60 minutes before the acquisition trial, respectively.

[1] = relative value for control (1.00), read-out: Na^+/K^+
[2] = relative value for control (100), read-out: Excretion of K^+
[3] = relative value for control (100), read-out: Excretion of Na^+
[4] = relative value for control (100), read-out: Urine volume

CCCn1c(=O)n2c(C)nnc2c2c1ncn2C [Compound 24, 6,9-Dihydro-3,9-dimethyl-6-n-propyl-5H-1,2,4-triazolo-[3,4-i]purin-5-one]
minimal effective dose (male dd mice): 100 mg/kg | response vs control in vivo at 25 mg/kg (Wistar male rats; [1]): 123% | response vs control in vivo at 25 mg/kg (Wistar male rats; [2]): 168% | response vs control in vivo at 25 mg/kg (Wistar male rats; [3]): 148% | response vs control in vivo at 25 mg/kg (Wistar male rats; [4]): 160% | MLD (male dd-mice): 300 mg/kg

CCCn1c(=O)n2c(C)nnc2c2[nH]cnc21 [Compound 25, 6,9-Dihydro-3-methyl-6-n-propyl-5H-1,2,4-triazolo[3,4-i]-purin-5-one]
pIC50 (trachea): 6.38 | minimal effective dose (male dd mice): 100 mg/kg | response vs control in vivo at 25 mg/kg (Wistar male rats; [1]): 163% | response vs control in vivo at 25 mg/kg (Wistar male rats; [2]): 119% | response vs control in vivo at 25 mg/kg (Wistar male rats; [3]): 193% | response vs control in vivo at 25 mg/kg (Wistar male rats; [4]): 161% | Experimental asthma Collapse time (Hartley male guinea pigs; 50 mg/kg orally): 590 ± 9.8 s | MLD (male dd-mice): 100 mg/kg

CCCn1c(=O)n2c(-c3ccc(Cl)cc3)nnc2c2c1ncn2C [Compound 12, 3-(4-Chlorophenyl)-6,9-dihydro-9-methyl-6-n-propyl-5H-1,2,4-triazolo[3,4-i]purin-5-one]
pIC50 (trachea): 4.59 | minimal effective dose (male dd mice): 100 mg/kg | response vs control in vivo at 25 mg/kg (Wistar male rats; [1]): 142% | response vs control in vivo at 25 mg/kg (Wistar male rats; [2]): 129% | response vs control in vivo at 25 mg/kg (Wistar male rats; [3]): 183% | response vs control in vivo at 25 mg/kg (Wistar male rats; [4]): 198% | Experimental asthma Collapse time (Hartley male guinea pigs; 5 mg/kg orally): 399 ± 55 s | MLD (male dd-mice): >300 mg/kg

CCCn1c(=O)n2c(-c3ccc(OC)cc3)nnc2c2c1ncn2C [Compound 9, 6,9-Dihydro-3-(4-methoxyphenyl)-9-methyl-6-n-propyl-5H-1,2,4-triazolo[3,4-i]purin-5-one]
pIC50 (trachea): 5.11 | response vs control in vivo at 25 mg/kg (Wistar male rats; [1]): 157% | response vs control in vivo at 25 mg/kg (Wistar male rats; [2]): 139% | response vs control in vivo at 25 mg/kg (Wistar male rats; [3]): 219% | response vs control in vivo at 25 mg/kg (Wistar male rats; [4]): 253% | MLD (male dd-mice): >300 mg/kg

CCCn1c(=O)n2c(-c3ccccc3)nnc2c2c1ncn2C [Compound 1, 6,9-Dihydro-9-methyl-3-phenyl-6-n-propyl-5H-1,2,4-triazolo-[3,4-i]purin-5-one]
pIC50 (trachea): 5.39 | response vs control in vivo at 25 mg/kg (Wistar male rats; [1]): 318% | response vs control in vivo at 25 mg/kg (Wistar male rats; [2]): 87% | response vs control in vivo at 25 mg/kg (Wistar male rats; [3]): 226% | response vs control in vivo at 25 mg/kg (Wistar male rats; [4]): 255% | MLD (male dd-mice): 100 mg/kg

CCCn1c(=O)n2c(-c3ccncc3)nnc2c2c1ncn2C [Compound 3, 6,9-Dihydro-9-methyl-6-n-propyl-3-(4-pyridyl)-5H-1,2,4-triazolo[3,4-i]purin-5-one]
pIC50 (trachea): 7.49 | response vs control in vivo at 25 mg/kg (Wistar male rats; [1]): 109% | response vs control in vivo at 25 mg/kg (Wistar male rats; [2]): 196% | response vs control in vivo at 25 mg/kg (Wistar male rats; [3]): 224% | response vs control in vivo at 25 mg/kg (Wistar male rats; [4]): 274% | Experimental asthma Collapse time (Hartley male guinea pigs; 50 mg/kg orally): 422 ± 130 s | MLD (male dd-mice): 100 mg/kg

CCCn1cnc2c1c1n[nH]c(=O)n1c(=O)n2CCC [Compound 44, 6,9-Di-n-propyl-2,5,6,9-tetrahydro-3H-1,2,4-triazolo[3,4-i]purin-3,5-dione]
pIC50 (trachea): 4.40 | response vs control in vivo at 25 mg/kg (Wistar male rats; [1]): 111% | response vs control in vivo at 25 mg/kg (Wistar male rats; [2]): 128% | response vs control in vivo at 25 mg/kg (Wistar male rats; [3]): 142% | response vs control in vivo at 25 mg/kg (Wistar male rats; [4]): 191% | MLD (male dd-mice): >300 mg/kg

CCCn1c(=O)n2c(-c3ccccc3)nnc2c2[nH]cnc21 [Compound 30, 6,9-Dihydro-3-phenyl-6-n-propyl-5H-1,2,4-triazolo[3,4-i]purin-5-one]
pIC50 (trachea): 6.12 | minimal effective dose (male dd mice): 10 mg/kg | response vs control in vivo at 25 mg/kg (Wistar male rats; [1]): 177% | response vs control in vivo at 25 mg/kg (Wistar male rats; [2]): 124% | response vs control in vivo at 25 mg/kg (Wistar male rats; [3]): 220% | response vs control in vivo at 25 mg/kg (Wistar male rats; [4]): 204% | MLD (male dd-mice): 300 mg/kg

CCCn1c(=O)n2c(-c3cccc(Cl)c3)nnc2c2c1ncn2C [Compound 11, 3-(3-Chlorophenyl)-6,9-dihydro-9-methyl-6-n-propyl-5H-1,2,4-triazolo[3,4-i]purin-5-one]
pIC50 (trachea): < 4.40 | minimal effective dose (male dd mice): 100 mg/kg | response vs control in vivo at 25 mg/kg (Wistar male rats; [1]): 226% | response vs control in vivo at 25 mg/kg (Wistar male rats; [2]): 134% | response vs control in vivo at 25 mg/kg (Wistar male rats; [3]): 302% | response vs control in vivo at 25 mg/kg (Wistar male rats; [4]): 255% | MLD (male dd-mice): >300 mg/kg

Cn1c(=O)c2[nH]cnc2n(C)c1=O [Theophylline, reference compound]
pIC50 (trachea): 4.64 | minimal effective dose (male dd mice): 100 mg/kg | Experimental asthma Collapse time (Hartley male guinea pigs; 50 mg/kg orally): 414 ± 47 s

CCCn1c(=O)n2c(-c3cccc(OC)c3)nnc2c2c1ncn2C [Compound 8, 6,9-Dihydro-3-(3-methoxyphenyl)-9-methyl-6-n-propyl-5H-1,2,4-triazolo[3,4-i]purin-5-one]
pIC50 (trachea): 5.25 | response vs control in vivo at 25 mg/kg (Wistar male rats; [1]): 144% | response vs control in vivo at 25 mg/kg (Wistar male rats; [2]): 122% | response vs control in vivo at 25 mg/kg (Wistar male rats; [3]): 175% | response vs control in vivo at 25 mg/kg (Wistar male rats; [4]): 170% | MLD (male dd-mice): >300 mg/kg

CCCn1c(=O)n2c(-c3cccnc3)nnc2c2c1ncn2C [Compound 4, 6,9-Dihydro-9-methyl-6-n-propyl-3-(3-pyridyl)-5H-1,2,4-triazolo[3,4-i]purin-5-one]
pIC50 (trachea): 5.11 | response vs control in vivo at 25 mg/kg (Wistar male rats; [1]): 125% | response vs control in vivo at 25 mg/kg (Wistar male rats; [2]): 134% | response vs control in vivo at 25 mg/kg (Wistar male rats; [3]): 167% | response vs control in vivo at 25 mg/kg (Wistar male rats; [4]): 177% | Experimental asthma Collapse time (Hartley male guinea pigs; 50 mg/kg orally): 358 ± 65 s | MLD (male dd-mice): 200 mg/kg

CCCCn1c(=O)n2c(=O)[nH]nc2c2c1ncn2C [Compound 51, 6-n-Butyl-9-methyl-2,5,6,9-tetrahydro-3H-1,2,4-triazolo[3,4-i]purin-3,5-dione]
response vs control in vivo at 25 mg/kg (Wistar male rats; [1]): 100% | response vs control in vivo at 25 mg/kg (Wistar male rats; [2]): 152% | response vs control in vivo at 25 mg/kg (Wistar male rats; [3]): 152% | response vs control in vivo at 25 mg/kg (Wistar male rats; [4]): 200% | Latency of test trial (mice; 0.625 mg/kg orally 60 minutes before acquisition trial): 37.0 ± 11.2 s | Latency of test trial (mice; 2.5 mg/kg orally 60 minutes before acquisition trial): 69.5 ± 16.6 s | Latency of test trial (mice; 10 mg/kg orally 60 minutes before acquisition trial): 139.9 ± 45.1 s | Latency of test trial (mice; 40 mg/kg orally 60 minutes before acquisition trial): 166.3 ± 49.9 s | MLD (male dd-mice): >300 mg/kg

CCCn1c(=O)n2c(-c3ccoc3C)nnc2c2c1ncn2C [Compound 6, 6,9-Dihydro-9-methyl-3-(2-methyl-3-furyl)-6-n-propyl-5H-1,2,4-triazolo[3,4-i]purin-5-one]
minimal effective dose (male dd mice): 100 mg/kg | response vs control in vivo at 25 mg/kg (Wistar male rats; [1]): 164% | response vs control in vivo at 25 mg/kg (Wistar male rats; [2]): 146% | response vs control in vivo at 25 mg/kg (Wistar male rats; [3]): 240% | response vs control in vivo at 25 mg/kg (Wistar male rats; [4]): 223% | MLD (male dd-mice): 200 mg/kg

CCCn1c(=O)n2c(-c3ccco3)nnc2c2c1ncn2C [Compound 5, 6,9-Dihydro-3-(2-furyl)-9-methyl-6-n-propyl-5H-1,2,4-triazolo[3,4-i]purin-5-one]
pIC50 (trachea): 6.15 | minimal effective dose (male dd mice): 100 mg/kg | MLD (male dd-mice): >300 mg/kg
